Where “and” joins values, the source holds several entries; their conditions need not be identical. Identical values can stand only once.
What was measured:
Experiment in all cases: trFRET binding kinome profiling
[1] = target: EGFR (Homo sapiens, UniProt P00533)
Protocol: (§1) JAK activity assays using isolated kinase domains in the presence of 0.1 mM ATP and trFRET kinome profiling were conducted as described previously (17).

[2] = target: Ck1alpha1 (Homo sapiens, UniProt P48729)
Protocol: as §1

[3] = target: Erk2 (Homo sapiens, UniProt P28482)
Protocol: as §1

[4] = target: Akt1 (Homo sapiens, UniProt P31749)
Protocol: as §1

[5] = target: CDK7/Cyclin H/Mat1 (Homo sapiens, UniProt P50613)
Protocol: as §1

[6] = target: Pim2 (Homo sapiens, UniProt Q9P1W9)
Sequence of Pim2 (Q9P1W9 whole entry, species assumed): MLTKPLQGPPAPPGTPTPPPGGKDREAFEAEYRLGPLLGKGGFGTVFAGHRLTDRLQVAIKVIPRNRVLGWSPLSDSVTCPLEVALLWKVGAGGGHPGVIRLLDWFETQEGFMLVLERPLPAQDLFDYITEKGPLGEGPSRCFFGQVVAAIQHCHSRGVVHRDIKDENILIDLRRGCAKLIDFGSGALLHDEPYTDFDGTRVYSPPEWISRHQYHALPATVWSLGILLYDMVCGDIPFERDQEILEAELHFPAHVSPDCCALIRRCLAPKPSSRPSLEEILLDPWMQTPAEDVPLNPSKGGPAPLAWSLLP
Protocol: as §1

[7] = target: STK33 (Homo sapiens, UniProt Q9BYT3)
Protocol: as §1

[8] = target: Aurora 1 (Homo sapiens, UniProt Q96GD4)
Protocol: as §1

[9] = target: TYRO3 (Homo sapiens, UniProt Q06418)
Protocol: as §1

[10] = target: Gsk3b (Homo sapiens, UniProt P49841)
Protocol: as §1

[11] = target: Rsk2 (Homo sapiens, UniProt P51812)
Protocol: as §1

[12] = target: TrkB (Homo sapiens, UniProt Q16620)
Protocol: as §1

[13] = target: SGK1 (Homo sapiens, UniProt O00141)
Protocol: as §1

[14] = target: PDGFRA V561D (Homo sapiens, UniProt P16234, V561D)
Protocol: as §1

[15] = target: PKCtheta (Homo sapiens, UniProt Q04759)
Protocol: as §1

[16] = target: ACVR1 (Homo sapiens, UniProt Q04771)
Sequence of ACVR1 (Q04771 21-509, species assumed): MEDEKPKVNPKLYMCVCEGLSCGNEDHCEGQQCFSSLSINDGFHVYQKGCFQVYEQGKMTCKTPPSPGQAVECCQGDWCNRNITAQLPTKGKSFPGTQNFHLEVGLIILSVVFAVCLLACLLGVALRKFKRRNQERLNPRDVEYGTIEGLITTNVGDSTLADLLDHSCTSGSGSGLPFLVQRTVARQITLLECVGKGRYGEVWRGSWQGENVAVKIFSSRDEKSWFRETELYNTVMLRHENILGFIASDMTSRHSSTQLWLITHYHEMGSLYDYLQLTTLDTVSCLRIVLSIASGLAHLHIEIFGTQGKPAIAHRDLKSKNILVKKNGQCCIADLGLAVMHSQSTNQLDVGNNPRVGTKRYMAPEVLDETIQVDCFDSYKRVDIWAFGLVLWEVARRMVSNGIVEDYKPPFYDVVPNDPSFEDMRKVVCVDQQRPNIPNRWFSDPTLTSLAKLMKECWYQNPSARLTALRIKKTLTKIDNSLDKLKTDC
Protocol: as §1

[17] = target: LCK (Homo sapiens, UniProt P06239)
Sequence of LCK (P06239 whole entry, species assumed): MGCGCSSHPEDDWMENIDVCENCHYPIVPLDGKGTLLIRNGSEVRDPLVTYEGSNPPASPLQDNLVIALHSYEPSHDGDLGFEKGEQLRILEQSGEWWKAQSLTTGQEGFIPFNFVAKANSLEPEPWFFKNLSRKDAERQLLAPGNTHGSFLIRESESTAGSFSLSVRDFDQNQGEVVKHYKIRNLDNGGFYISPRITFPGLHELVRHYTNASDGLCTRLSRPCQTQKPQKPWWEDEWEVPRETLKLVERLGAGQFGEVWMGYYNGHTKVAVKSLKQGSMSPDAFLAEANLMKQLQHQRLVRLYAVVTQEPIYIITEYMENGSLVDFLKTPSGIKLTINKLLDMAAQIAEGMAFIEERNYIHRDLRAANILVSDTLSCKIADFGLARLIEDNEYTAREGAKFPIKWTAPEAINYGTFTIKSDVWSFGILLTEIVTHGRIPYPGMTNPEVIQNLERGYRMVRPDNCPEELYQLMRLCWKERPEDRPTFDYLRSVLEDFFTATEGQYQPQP
Protocol: as §1

[18] = target: CDK8/Cyclin C (Homo sapiens, UniProt P49336)
Protocol: as §1

[19] = target: Flt1 (Homo sapiens, UniProt P17948)
Protocol: as §1

[20] = target: DYRK1B (Homo sapiens, UniProt Q9Y463)
Protocol: as §1

[21] = target: DDR1 (Homo sapiens, UniProt Q08345)
Protocol: as §1

[22] = target: IKKE (Homo sapiens, UniProt Q14164)
Protocol: as §1

[23] = target: IGF1R (Homo sapiens, UniProt P08069)
Protocol: as §1

[24] = target: CSF1R (Homo sapiens, UniProt P07333)
Protocol: as §1

[25] = target: TBK1 (Homo sapiens, UniProt Q9UHD2)
Sequence of TBK1 (Q9UHD2 whole entry, species assumed): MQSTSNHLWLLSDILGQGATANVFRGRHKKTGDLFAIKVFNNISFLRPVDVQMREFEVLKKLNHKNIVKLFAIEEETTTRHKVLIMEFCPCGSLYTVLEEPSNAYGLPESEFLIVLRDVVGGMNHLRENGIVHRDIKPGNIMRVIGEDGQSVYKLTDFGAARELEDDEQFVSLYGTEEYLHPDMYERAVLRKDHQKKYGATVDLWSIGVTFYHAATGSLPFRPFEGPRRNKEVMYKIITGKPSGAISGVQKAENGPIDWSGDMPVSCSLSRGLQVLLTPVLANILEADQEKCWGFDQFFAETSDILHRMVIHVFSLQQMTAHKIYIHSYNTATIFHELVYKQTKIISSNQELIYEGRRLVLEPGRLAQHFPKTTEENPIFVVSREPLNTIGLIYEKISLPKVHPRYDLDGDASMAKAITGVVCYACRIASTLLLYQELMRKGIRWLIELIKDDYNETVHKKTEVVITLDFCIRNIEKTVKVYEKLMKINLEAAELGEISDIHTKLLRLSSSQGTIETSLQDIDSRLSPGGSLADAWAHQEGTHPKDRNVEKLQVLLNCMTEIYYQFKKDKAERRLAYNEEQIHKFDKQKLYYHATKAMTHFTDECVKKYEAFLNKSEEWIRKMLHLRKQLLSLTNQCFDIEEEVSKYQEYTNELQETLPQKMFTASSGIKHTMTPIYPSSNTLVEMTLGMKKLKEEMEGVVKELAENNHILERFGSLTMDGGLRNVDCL
Protocol: as §1

[26] = target: Plk3 (Homo sapiens, UniProt Q9H4B4)
Protocol: as §1

[27] = target: TNK2 (Homo sapiens, UniProt Q07912)
Protocol: as §1

[28] = target: p38 alpha (Homo sapiens, UniProt Q16539)
Protocol: as §1

[29] = target: CAMK2A (Homo sapiens, UniProt Q9UQM7)
Sequence of CAMK2A (Q9UQM7 whole entry, species assumed): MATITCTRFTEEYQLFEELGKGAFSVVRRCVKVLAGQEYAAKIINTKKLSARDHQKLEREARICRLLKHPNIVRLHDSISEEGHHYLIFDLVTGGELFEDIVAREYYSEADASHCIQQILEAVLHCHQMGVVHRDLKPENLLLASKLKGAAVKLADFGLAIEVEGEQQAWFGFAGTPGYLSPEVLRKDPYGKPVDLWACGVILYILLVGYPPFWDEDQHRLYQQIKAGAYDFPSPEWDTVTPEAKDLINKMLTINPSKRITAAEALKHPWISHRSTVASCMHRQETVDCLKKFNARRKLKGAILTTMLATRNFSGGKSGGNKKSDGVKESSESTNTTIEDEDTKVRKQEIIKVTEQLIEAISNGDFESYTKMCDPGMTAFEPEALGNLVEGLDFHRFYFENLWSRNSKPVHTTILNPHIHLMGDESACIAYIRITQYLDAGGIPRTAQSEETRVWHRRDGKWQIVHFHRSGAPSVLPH
Protocol: as §1

[30] = target: MST1 (Homo sapiens, UniProt Q13043)
Protocol: as §1

[31] = target: PKA (Homo sapiens, UniProt P17612)
Protocol: as §1

[32] = target: PKG1A (Homo sapiens, UniProt Q13976)
Protocol: as §1

[33] = target: BTK (Homo sapiens, UniProt Q06187)
Protocol: as §1

[34] = target: TAOK2 (Homo sapiens, UniProt Q9UL54)
Protocol: as §1

[35] = target: JNK2 (Homo sapiens, UniProt P45984)
Protocol: as §1

[36] = target: MAP2K3 (Homo sapiens, UniProt P46734)
Protocol: as §1

[37] = target: Src (Homo sapiens, UniProt P12931)
Protocol: as §1

[38] = target: CDK9/Cyclin K (Homo sapiens, UniProt P50750)
Protocol: as §1

[39] = target: MAP3K10 (Homo sapiens, UniProt Q02779)
Protocol: as §1

[40] = target: CLK2 (Homo sapiens, UniProt P49760)
Protocol: as §1

[41] = target: PKCzeta (Homo sapiens, UniProt Q05513)
Protocol: as §1

[42] = target: TrkC (Homo sapiens, UniProt Q16288)
Sequence of TrkC (Q16288 32-839, species assumed): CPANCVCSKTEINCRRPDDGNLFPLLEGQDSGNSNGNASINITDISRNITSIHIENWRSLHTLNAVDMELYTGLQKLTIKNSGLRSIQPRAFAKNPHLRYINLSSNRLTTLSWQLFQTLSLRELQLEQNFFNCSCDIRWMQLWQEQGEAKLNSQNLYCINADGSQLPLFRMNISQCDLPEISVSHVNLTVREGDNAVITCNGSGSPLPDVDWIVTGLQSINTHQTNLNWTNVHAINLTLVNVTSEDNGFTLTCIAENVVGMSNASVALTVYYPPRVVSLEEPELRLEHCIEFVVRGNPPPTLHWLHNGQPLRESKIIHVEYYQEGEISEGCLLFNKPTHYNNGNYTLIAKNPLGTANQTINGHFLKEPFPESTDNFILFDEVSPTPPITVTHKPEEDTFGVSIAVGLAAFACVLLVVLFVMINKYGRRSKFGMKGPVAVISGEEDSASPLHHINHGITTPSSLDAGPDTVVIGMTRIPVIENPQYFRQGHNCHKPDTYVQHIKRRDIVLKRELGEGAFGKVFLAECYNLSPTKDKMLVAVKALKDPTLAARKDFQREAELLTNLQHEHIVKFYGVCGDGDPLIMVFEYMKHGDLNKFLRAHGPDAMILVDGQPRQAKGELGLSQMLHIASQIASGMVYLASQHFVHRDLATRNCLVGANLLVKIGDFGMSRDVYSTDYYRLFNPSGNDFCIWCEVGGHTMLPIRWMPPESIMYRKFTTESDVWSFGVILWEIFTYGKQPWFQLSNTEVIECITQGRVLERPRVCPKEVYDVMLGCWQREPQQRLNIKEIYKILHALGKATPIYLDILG
Protocol: as §1

[43] = target: Rock1 (Homo sapiens, UniProt Q13464)
Sequence of Rock1 (Q13464 whole entry, species assumed): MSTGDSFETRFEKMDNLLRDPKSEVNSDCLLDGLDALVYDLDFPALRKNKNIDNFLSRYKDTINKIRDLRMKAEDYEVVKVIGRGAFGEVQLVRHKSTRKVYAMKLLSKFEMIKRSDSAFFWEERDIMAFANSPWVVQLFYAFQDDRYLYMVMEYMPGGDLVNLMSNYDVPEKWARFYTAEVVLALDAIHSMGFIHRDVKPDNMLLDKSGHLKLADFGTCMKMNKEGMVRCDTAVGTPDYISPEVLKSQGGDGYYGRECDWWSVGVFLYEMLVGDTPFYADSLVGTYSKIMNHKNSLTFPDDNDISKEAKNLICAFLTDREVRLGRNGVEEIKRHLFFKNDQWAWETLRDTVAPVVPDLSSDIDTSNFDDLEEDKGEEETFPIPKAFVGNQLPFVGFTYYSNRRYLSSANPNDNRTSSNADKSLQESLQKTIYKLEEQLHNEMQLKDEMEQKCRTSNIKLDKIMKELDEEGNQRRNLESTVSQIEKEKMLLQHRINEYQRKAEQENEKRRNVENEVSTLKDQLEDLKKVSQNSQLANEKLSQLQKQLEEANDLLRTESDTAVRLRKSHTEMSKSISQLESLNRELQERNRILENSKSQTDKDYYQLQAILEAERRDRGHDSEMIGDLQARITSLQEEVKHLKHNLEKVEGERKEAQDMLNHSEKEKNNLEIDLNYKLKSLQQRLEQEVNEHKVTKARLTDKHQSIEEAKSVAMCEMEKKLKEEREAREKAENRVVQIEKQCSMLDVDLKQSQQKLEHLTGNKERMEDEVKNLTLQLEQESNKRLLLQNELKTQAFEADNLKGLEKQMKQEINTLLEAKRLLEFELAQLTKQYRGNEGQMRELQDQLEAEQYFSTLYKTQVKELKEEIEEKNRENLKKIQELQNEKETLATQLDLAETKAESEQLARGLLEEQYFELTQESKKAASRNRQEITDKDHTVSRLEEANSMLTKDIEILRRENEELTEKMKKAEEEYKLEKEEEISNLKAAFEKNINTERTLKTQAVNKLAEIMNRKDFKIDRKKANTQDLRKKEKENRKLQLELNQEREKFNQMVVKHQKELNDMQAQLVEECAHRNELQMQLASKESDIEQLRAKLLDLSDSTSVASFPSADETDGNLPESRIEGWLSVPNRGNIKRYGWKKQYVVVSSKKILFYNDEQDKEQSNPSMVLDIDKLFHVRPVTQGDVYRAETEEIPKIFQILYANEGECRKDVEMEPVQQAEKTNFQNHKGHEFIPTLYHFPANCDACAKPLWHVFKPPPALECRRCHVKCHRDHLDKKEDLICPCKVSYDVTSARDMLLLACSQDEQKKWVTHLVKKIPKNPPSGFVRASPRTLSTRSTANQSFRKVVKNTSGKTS
Protocol: as §1

[44] = target: STK16 (Homo sapiens, UniProt O75716)
Protocol: as §1

[45] = target: Rock2 (Homo sapiens, UniProt O75116)
Protocol: as §1

Sequence of Ck1alpha1 (P48729 whole entry): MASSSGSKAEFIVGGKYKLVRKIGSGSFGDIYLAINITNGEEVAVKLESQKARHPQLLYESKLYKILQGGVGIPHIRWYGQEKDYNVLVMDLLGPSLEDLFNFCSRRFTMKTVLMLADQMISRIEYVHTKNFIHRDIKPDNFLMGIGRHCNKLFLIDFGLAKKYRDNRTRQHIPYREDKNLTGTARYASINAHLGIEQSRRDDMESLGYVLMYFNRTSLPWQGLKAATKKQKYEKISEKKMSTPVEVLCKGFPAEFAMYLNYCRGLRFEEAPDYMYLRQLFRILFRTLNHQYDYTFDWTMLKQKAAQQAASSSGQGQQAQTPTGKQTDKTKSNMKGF

Question: Which results are given for `CC[C@@H]1CN(C(=O)NCC(F)(F)F)C[C@@H]1c1cnc2cnc3[nH]ccc3n12` [upadacitinib, (3S,4R)-3-ethyl-4-(3H-imidazo [1,2-a]pyrrolo [2,3-e]pyrazin-8-yl)-N-(2,2,2-trifluoroethyl) pyrrolidine-1-carboxamide]?
Answer: IC50 [1]: > 10 µM; IC50 [2]: > 10 µM; IC50 [3]: > 10 µM; IC50 [4]: > 10 µM; IC50 [5]: > 10 µM; IC50 [6]: > 10 µM; IC50 [7]: > 10 µM; IC50 [8]: > 5.5 µM; IC50 [9]: > 10 µM; IC50 [10]: > 10 µM; IC50 [11]: > 9.6 µM; IC50 [12]: > 10 µM; IC50 [13]: > 10 µM; IC50 [14]: > 10 µM; IC50 [15]: 5.1 µM; IC50 [16]: > 10 µM; IC50 [17]: > 10 µM; IC50 [18]: > 10 µM; IC50 [19]: > 10 µM; IC50 [20]: > 10 µM; IC50 [21]: > 10 µM; IC50 [22]: > 10 µM; IC50 [23]: > 10 µM; IC50 [24]: > 10 µM; IC50 [25]: > 10 µM; IC50 [26]: > 10 µM; IC50 [27]: 5.1 µM; IC50 [28]: > 10 µM; IC50 [29]: > 10 µM; IC50 [30]: > 10 µM; IC50 [31]: > 10 µM; IC50 [32]: > 10 µM; IC50 [33]: > 10 µM; IC50 [34]: > 10 µM; IC50 [35]: > 10 µM; IC50 [36]: > 10 µM; IC50 [37]: > 10 µM; IC50 [38]: > 10 µM; IC50 [39]: > 10 µM; IC50 [40]: > 10 µM; IC50 [41]: > 10 µM; IC50 [42]: > 10 µM; IC50 [43]: < 1 µM and 0.92 µM; IC50 [44]: 9.7 µM; IC50 [45]: < 1 µM

Reference: paper PMC6390583 (BMC rheumatology, 2018)
